Usually pIC50 stands for −log10 of the IC50, conventionally taken in molar units. A word on the pEC50: it is the EC50 on a negative log10 scale, so that one unit is a factor of ten.

We go through 13 molecules from US12252481B2, “Anti-viral compounds” (Aligos Therapeutics, Inc., priority 2021, dated 2025).

In series [1] the target is T1, SARS-Cov-2 3CLpro (Severe acute respiratory syndrome coronavirus 2, UniProt P0DTD1).
T1 construct: 3CLpro and HRV3C was added using a Multidrop Combi
Kind of series: biochemical. To be noted: 3CLpro, 30 mins preincubation, SAMDI-MS; read-out: SARS-Cov-2 IC50 (class).

Series [2] concerns the target T2, HRV3C (Human rhinovirus 14, UniProt P03303).
T2 construct: 3CLpro and HRV3C was added using a Multidrop Combi
Kind of series: biochemical. Also on record: species or system HRV. Particulars: HRV3C, 30 mins preincubation, SAMDI-MS; read-out: HRV IC50 (bound).

Series [3] concerns human beta-coronavirus OC43. Kind of series: OC43 coronavirus antiviral assay in HeLa cells (cytopathic effect, cell-titer-glo). The series is classed as cell-based. Particulars: 6 days at 33° C., read-out: EC50 (class). A general note: Protection from cytopathic effect is a common read-out in antiviral testing.
Series [4] has as its system SARS-CoV-2-GHB-03021/2020. It is filed as cell-based. To be noted: read-out: VeroE6 + CP (EC50).
Series [5] concerns B.1.1.7 lineage SARS-CoV-2. Kind of series: microbe, parasite or virus in culture. It is filed as cell-based. To be noted: read-out: A549-dual_ACE2_TMPRSS2 (EC50).
The target of series [6] is T3, human cathepsin L (Homo sapiens, UniProt P07711).
T3 construct: purchased R&D Systems
T3 sequence (P07711 114-333): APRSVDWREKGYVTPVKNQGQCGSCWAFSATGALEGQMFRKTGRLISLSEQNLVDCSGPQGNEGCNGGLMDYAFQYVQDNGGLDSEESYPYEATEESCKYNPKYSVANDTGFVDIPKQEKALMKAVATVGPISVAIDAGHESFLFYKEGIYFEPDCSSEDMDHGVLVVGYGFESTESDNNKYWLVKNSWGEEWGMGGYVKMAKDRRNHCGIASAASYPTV
Briefly: Cathepsin L assay (Z-FR-AMC fluorescence). It is filed as biochemical. To be noted: 10 pM human cathepsin L, 30 mins preincubation, Z-FR-AMC 2 μM. A digest of the protocol:
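IC50 values were taken from four-parameter fits of fluorescence read at 355/460 nm every 2 minutes for 30 minutes. The reaction started when 2 μM Z-FR-AMC was added. Before that, 10 pM human cathepsin L had been preincubated with inhibitor for 30 minutes.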

Series [7] relates to HeLa cells.
The test system of series [8] is Vero E6-eGFP cells. Particulars: read-out: VeroE6 + CP (CC50), absence of virus, numeric values.
The test system of series [9] is A549-dual_ACE2_TMPRSS2 cells. To be noted: read-out: A549-dual_ACE2_TMPRSS2 (CC50); assay medium without virus, MTS, numeric values.
Series [10] is described as follows: in vitro. Particulars: human.
Series [11] in a line: in vitro. To be noted: human. The source holds these as a separate data set.
[12] abbreviates: Betacoronavirus 1, OC43, HeLa, 144 h.
Setting [13] is: Severe acute respiratory syndrome coronavirus 2, 96 h.

pEC50, pIC50: −log10 of the molar value. Where two headings read alike, the source gives them in different places.

T2 sequence (P03303 1538-1719): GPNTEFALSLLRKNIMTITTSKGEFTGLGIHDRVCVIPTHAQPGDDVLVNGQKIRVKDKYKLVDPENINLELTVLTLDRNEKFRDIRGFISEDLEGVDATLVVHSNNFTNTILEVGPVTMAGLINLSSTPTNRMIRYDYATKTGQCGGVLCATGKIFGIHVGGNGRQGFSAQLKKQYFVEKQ

In the case of `CC(C)(C)[C@H](NC(=O)C1CC1)C(=O)N1C[C@H]2[C@@H]([C@H]1C(=O)N[C@H](C#N)C[C@@H]1CCNC1=O)[C@H]1C=C[C@@H]2C1` [Example 21, (1R,2S,3S,6R,7S)—N-[(1S)-1-cyano-2-[(3S)-2-oxopyrrolidin-3-yl]ethyl]-4-[(2S)-2-(cyclopropylformamido)-3,3-dimethylbutanoyl]-4-azatricyclo[5.2.1.0^{2,6}]dec-8-ene-3-carboxamide], the pIC50 is greater than 7.70 in [1], less than 5.00 in series [2] and no more than 5.00 in series [6]. The pEC50 in [3], in series [4] and in series [5] was greater than 7.00 throughout. For the same molecule, the CC50 was greater than 100000 nM in [7], greater than 50000 nM in series [8] and greater than 10000 nM in [9].
Take `CC(C)(C)[C@H](NC(=O)C(F)(F)Cl)C(=O)N1C[C@@H]2[C@H]3C[C@@H]([C@@H]2[C@H]1C(=O)N[C@H](C#N)C[C@@H]1CCNC1=O)[C@H](F)C3` [Compound 134, (1S,3aR,4S,6R,7S,7aR)-2-((S)-2-(2-chloro-2,2-difluoroacetamido)-3,3-dimethylbutanoyl)-N-((S)-1-cyano-2-((S)-2-oxopyrrolidin-3-yl)ethyl)-6-fluorooctahydro-1H-4,7-methanoisoindole-1-carboxamide]: the negative logarithm of the IC50 (pIC50) in series [1] was greater than 7.70; in [2], less than 6.30; in series [6], no more than 5.00. In series [3] (setting [12]), the pEC50 was greater than 7.00. The CC50 in [10] was greater than 100000 nM.
With `CO[C@H](C(C)C)[C@H](NC(=O)C(F)(F)C(F)(F)F)C(=O)N1C[C@H]2[C@@H]([C@H]1C(=O)N[C@H](C#N)C[C@@H]1CCNC1=O)[C@H]1C=C[C@@H]2C1` [Compound 135], the values for the pIC50 in [1], in [2] and in series [6] were greater than 7.70, less than 6.30 and no more than 5.00, respectively. Also, the pEC50 in series [5] (setting [13]) was greater than 7.00. The molecule further registered a CC50 in series [11] greater than 1000 nM.
Consider `CC(C)(C)[C@H](NC(=O)C(F)(F)F)C(=O)N1C[C@@H]2[C@@H]3CC[C@@H](C3)[C@@H]2[C@H]1C(=O)N[C@H](C#N)CC1Cc2ccccc2NC1=O` (stereo partly drawn) [Example 31, (1S,3aR,4R,7S,7aS)—N-((1S)-1-cyano-2-(2-oxo-1,2,3,4-tetrahydroquinolin-3-yl)ethyl)-2-((S)-3,3-dimethyl-2-(2,2,2-trifluoroacetamido)butanoyl)octahydro-1H-4,7-methanoisoindole-1-carboxamide], for which the pIC50 was greater than 7.70 in series [1], less than 5.00 in [2] and no more than 5.00 in [6]. For the same molecule, the pEC50 is 6.00 to 7.00 in [3] (setting [12]), 6.00 to 7.00 in [4] and greater than 7.00 in series [5] (setting [13]). The CC50 in series [10] and in series [11] was greater than 10000 nM throughout.
With `Cc1cc(C(=O)N[C@H](C(=O)N2C[C@H]3[C@@H]([C@H]2C(=O)N[C@H](C#N)C[C@@H]2CCNC2=O)[C@H]2C=C[C@@H]3C2)C(C)(C)C)no1` [Example 4, (1R,2S,3S,6R,7S)—N-[(1S)-1-cyano-2-[(3S)-2-oxopyrrolidin-3-yl]ethyl]-4-[(2S)-3,3-dimethyl-2-[(5-methyl-1,2-oxazol-3-yl)formamido]butanoyl]-4-azatricyclo[5.2.1.0^{2,6}]dec-8-ene-3-carboxamide], the negative logarithm of the IC50 (pIC50) in [1] was 6.70 to 7.70; in [2], less than 5.00; in [6], no more than 5.00. In addition, the pEC50 in series [3] was greater than 7.00; in [4], 6.00 to 7.00; in series [5], 6.00 to 7.00. Also, the CC50 was greater than 100000 nM in [7], greater than 50000 nM in series [8] and greater than 10000 nM in [9].
As to `CC(C)(C)[C@H](NC(=O)C(F)(F)F)C(=O)N1C[C@H]2[C@@H]([C@H]1C(=O)N[C@H](C#N)CC1Cc3ccccc3NC1=O)[C@H]1C=C[C@@H]2C1` (stereo partly drawn) [Example 29, (1S,3aR,4S,7R,7aS)—N-((1S)-1-cyano-2-(2-oxo-1,2,3,4-tetrahydroquinolin-3-yl)ethyl)-2-((S)-3,3-dimethyl-2-(2,2,2-trifluoroacetamido)butanoyl)-2,3,3a,4,7,7a-hexahydro-1H-4,7-methanoisoindole-1-carboxamide], the negative logarithm of the IC50 (pIC50) in series [1] is greater than 7.70; in series [2], less than 5.00; in [6] it was no more than 5.00. Besides, the pEC50 in series [3] (setting [12]), in series [4] and in series [5] (setting [13]) was greater than 7.00 in each case. For the same molecule, the CC50 in [10] and in series [11] was greater than 10000 nM in each case.
In the case of `Cc1cn(C(C(=O)N2C[C@H]3[C@@H]([C@H]2C(=O)N[C@H](C#N)C[C@@H]2CCNC2=O)[C@H]2C=C[C@@H]3C2)C(C)(C)C)nn1` (some centres unmarked) [Compound 53], the negative logarithm of the IC50 (pIC50) in series [1] was 6.70 to 7.70; in series [2] it was less than 5.00; in series [6], no more than 5.00. Further, the pEC50 was 5.00 to 6.00 in series [3] (setting [12]), 6.00 to 7.00 in [4] and 5.00 to 6.00 in series [5] (setting [13]). For the same molecule, the CC50 in series [10] and in series [11] was greater than 10000 nM each time.
Take `CC(C)(C)[C@H](NC(=O)C(F)(F)F)C(=O)N1C[C@@H]2[C@@H]3CC[C@@H](C3)[C@@H]2[C@H]1C(=O)N[C@H](C#N)C[C@@H]1CC2(CC2)NC1=O` [Example 15, (1S,3aR,4R,7S,7aS)-N-((S)-1-cyano-2-((R)-5-oxo-4-azaspiro[2.4]heptan-6-yl)ethyl)-2-((S)-3,3-dimethyl-2-(2,2,2-trifluoroacetamido)butanoyl)octahydro-1H-4,7-methanoisoindole-1-carboxamide]: the negative-log IC50 (pIC50) in series [1] was greater than 7.70; in series [2], less than 5.00; in series [6], no more than 5.00. Moreover, the negative-log EC50 (pEC50) in [4] and in [5] (setting [13]) was greater than 7.00 in each case. The molecule further showed a CC50 in series [11] greater than 10000 nM.
On to `N#C[C@H](C[C@@H]1CCNC1=O)NC(=O)[C@@H]1[C@@H]2[C@H](CN1C(=O)[C@@H]1C[C@]13CCCc1ccccc13)[C@@H]1C=C[C@H]2C1` (single isomer, unassigned) [Example 8], for which the negative logarithm of the IC50 (pIC50) in [1] was 6.70 to 7.70; in series [2], less than 5.00; in series [6], no more than 5.00. Moreover, the figures for the negative logarithm of the EC50 (pEC50) in [3] and in series [5] were 6.00 to 7.00 and greater than 7.00, respectively. Also, the CC50 was greater than 100000 nM in series [7], greater than 50000 nM in [8] and greater than 10000 nM in series [9].
With `CC(C)(C)[C@H](NC(=O)c1ccccn1)C(=O)N1C[C@H]2[C@@H]([C@H]1C(=O)N[C@H](C#N)C[C@@H]1CCNC1=O)[C@H]1C=C[C@@H]2C1` [Example 5, (1R,2S,3S,6R,7S)—N-[(1S)-1-cyano-2-[(3S)-2-oxopyrrolidin-3-yl]ethyl]-4-[(2S)-3,3-dimethyl-2-(pyridin-2-ylformamido)butanoyl]-4-azatricyclo[5.2.1.0^{2,6}]dec-8-ene-3-carboxamide], the pIC50 in series [1] is 5.70 to 6.70; in series [2], less than 5.00; in series [6], no more than 5.00. For the same molecule, the pEC50 is 6.00 to 7.00 in [3], 5.00 to 6.00 in series [4] and 5.00 to 6.00 in series [5]. Moreover, the figures for the CC50 in series [7], in series [8] and in series [9] were greater than 100000 nM, greater than 50000 nM and greater than 10000 nM, respectively.
For the molecule `CC(C)(C)[C@H](NC(=O)C1(C(F)(F)F)CC1)C(=O)N1C[C@H]2[C@@H]([C@H]1C(=O)N[C@H](C#N)C[C@@H]1CCNC1=O)[C@H]1C=C[C@@H]2C1` [Example 20, (1R,2S,3S,6R,7S)—N-[(1S)-1-cyano-2-[(3S)-2-oxopyrrolidin-3-yl]ethyl]-4-[(2S)-3,3-dimethyl-2-{[1-(trifluoromethyl)cyclopropyl]formamido}butanoyl]-4-azatricyclo[5.2.1.0^{2,6}]dec-8-ene-3-carboxamide], the pIC50 in series [1] is greater than 7.70; in [2], less than 5.00; in series [6], no more than 5.00. Also, the negative-log EC50 (pEC50) is greater than 7.00 in [3], greater than 7.00 in series [4] and 6.00 to 7.00 in series [5]. Besides, the CC50 in series [7] was greater than 100000 nM; in series [8], greater than 50000 nM; in [9], greater than 10000 nM.
For `CC1(C(=O)N[C@H](C(=O)N2C[C@H]3[C@@H]([C@H]2C(=O)N[C@H](C#N)C[C@@H]2CCNC2=O)[C@H]2C=C[C@@H]3C2)C(C)(C)C)CC1` [Compound 47, (1R,2S,3S,6R,7S)—N-[(1S)-1-cyano-2-[(3S)-2-oxopyrrolidin-3-yl]ethyl]-4-[(2S)-3,3-dimethyl-2-[(1-methylcyclopropyl)formamido]butanoyl]-4-azatricyclo[5.2.1.0^{2,6}]dec-8-ene-3-carboxamide], the figures for the negative-log IC50 (pIC50) in [1], in series [2] and in [6] were 6.70 to 7.70, less than 5.00 and no more than 5.00, respectively. Moreover, the pEC50 in series [3] is 6.00 to 7.00. Further, the CC50 in series [7] is greater than 100000 nM; in series [8] it was greater than 50000 nM; in series [9], greater than 10000 nM.
As for `[2H]C1=C[C@@H]2C[C@H]1[C@H]1[C@@H]2CN(C(=O)[C@@H](NC(=O)C(F)(F)C(F)(F)F)C(C)(C)C)[C@@H]1C(=O)N[C@H](C#N)C[C@@H]1CCNC1=O` [Compound 125], the figures for the pIC50 in series [1] and in series [2] were greater than 7.70 and less than 6.30, respectively. The pEC50 in [3] (setting [12]) is greater than 7.00. Also, the CC50 in series [10] was greater than 100000 nM.
